# Source: patent US11427595B2, “Compositions and methods for inhibiting viral infection” (Trustees of Boston University, priority 2018, dated 2022)
# Like-named read-outs stand apart in the source and are kept apart here.
# What was measured:
# HCVpp = type: cell-based, Hepatitis C virus; conditions: Huh7.5.1 cells, racemates and single (+)-enantiomers, 1 μM or 2 μM for 3 h, luciferase after 48 h
# Ebolapp = type: cell-based, Ebola virus
# [1] = system: HCV replicon cell line 2-3+ (full-length HCV Genotype 1b RNA genome); assay: HCV replicon system: viral RNA replication and protein synthesis; type: cell-based, Hepatitis C virus; conditions: 2 μM for 3 h; for HCV RNA replication: viral RNA by real-time PCR after 48 or 72 h; for HCV protein synthesis (translation): NS5 by Western blotting after 48 or 72 h
# Description: HCV replicon cell line 2-3+ was treated with the indicated compounds for 3 h. Cells were incubated for an additional 48 hours (FIG. 10A and FIG. 10C) or 72 hours (FIG. 10B and FIG. 10D). Cellular RNA or protein was isolated for quantifications of HCV viral RNA by real-time PCR (FIG. 10A and FIG. 10B) or […] NS5 by Western blotting (FIG. 10C and FIG. 10D).
# Next, the ability of the aglaroxin C analogues to inhibit HCV RNA replication and mRNA translation was investigated using an HCV replicon system which harbors a full-length HCV Genotype 1b RNA genome. In replicon cells, HCV RNA replicates and is translated into viral proteins without forming infectious viruses. […] To corroborate these findings, an in vitro translation inhibition assay was assembled where a bicistronic reporter mRNA was programmed for translation in Krebs-2 extracts FIG. 11A-11B.
# Cells and Antibodies. The human liver cell line Huh7.5.1 was provided by Scripps Research Institute. The full-length HCV Genotype 1b-replicon-containing cell line 2-3(+) was a gift from University of North Carolina, Chapel Hill, N.C. The Aedes albopictus cell line C6/36 was purchased from American Type Culture Collection (ATCC) (CRL-1660). All cell lines were maintained in DMEM supplemented with 5% penicillin and streptomycin, 1% NEAA, and 10% fetal bovine serum (FBS) (Gemini Bio-Products). The β-actin antibody (clone AC-74) was purchased from Sigma. The HCV NS5A monoclonal antibody 9E10 was a gift from Rockefeller University. Secondary antibodies were purchased from Jackson ImmunoResearch Laboratories, Inc, and Molecular Probes (Invitrogen). Primer sequences are: Dengue 16681: F: 5′-[…]-3′ (SEQ ID NO: 3); R: 5′-[…]-3′ (SEQ ID NO: 4). GAPDH: F: 5′-[…]-3′ (SEQ ID NO: 5); R: 5′-[…]-3′ (SEQ ID NO: 6).
# [2] = system: cap-dependent Firefly luciferase (FLuc) translation; assay: In vitro translation of bicistronic FF/HCV/Ren mRNA in Krebs-2 extracts, cap-dependent; type: biochemical; conditions: 1 μM, relative to DMSO
# Excerpt: (§1) In this system, Firefly luciferase (FLuc) translation is cap-dependent whereas Renilla luciferase (RLuc) expression HCV-IRES dependent. […] Results are presented relative to values obtained in the presence of DMSO ad expressed as mean±error of two biological replicates.
# (§2) In this system, translation of the Firefly luciferase (FLuc) translation is cap-dependent whereas Renilla luciferase (RLuc) translation is dependent upon the HCV internal ribosome entry site (IRES) FIG. 11A.
# (§3) In vitro transcriptions and translations were performed as described previously. Plasmid encoding the bicistronic FF/HCV/Ren open reading frame was linearized with BamHI and m^7Gppp-capped mRNA was produced by in vitro transcription reactions using SP6 RNA polymerase. In vitro translation reactions were performed with S10 extracts prepared from Kreb-2 cells and programmed with 4 ng/uL of in vitro transcribed mRNA. Firefly (FF) and Renilla (Ren) luciferase activities were measured on a Berthold Lumat LB9507 Luminometer and values normalized against vehicle control, which was set at 1.
# Huh7.5.1 cells [3] = assay: MTS cell viability assay; type: cell-based, human; conditions: 3 h treatment, 72 h incubation
# Excerpt: In this comparison, niclosamide was used as a positive control, which is known as HCV inhibitor (unclear mechanisms). Data from CellTiter-Glo assay was obtained from separate experiments conducted on a different date.
# MTS (3-(4,5-dimethylthiazol-2-yl)-5-(3-carboxymethoxyphenyl)-2-(4-sulfophenyl)-2H-tetrazolium)) assay is a colorimetric assay used to determine the mitochondrial metabolic rate by quantifying the reduced formazan product of MTS in cells to reflect viable cells. To determine the CC50 of each compound, Huh7.5.1 cells were treated with compounds or DMSO at indicated doses for 3 h in 96-well plates. After removal of compounds, cells were further incubated for 72 h prior to conducting the viability assay. The MTS assay in this study is accordance with a protocol provided by manufacturer (Promega, Madison, Wis. USA). One-fifth volume of MTS reagent was added into the culture supernatant at indicated time points. Plates were incubated at 37° C. for 3 hours with 5% CO2 followed by measuring the absorbance at 490 nanometers (nm) with an ELISA reader (SpectraMax Plus 385, Molecular Devices, USA). Percentages of toxicity were calculated using the formulas: 100-percentage of vial cells relative to that from the dimethyl sulfoxide (DMSO) treated group (100%) (n=3) (FIG. 68-FIG. 71).
# [4] = system: HCV internal ribosome entry site (IRES)-dependent Renilla luciferase (RLuc) translation; assay: In vitro translation of bicistronic FF/HCV/Ren mRNA in Krebs-2 extracts, HCV IRES-dependent; type: biochemical, Hepatitis C virus; conditions: 1 μM, relative to DMSO
# Excerpt: as §1, §2, §3
# CHIKVpp = type: cell-based, Chikungunya virus; conditions: Huh7.5.1 cells, racemates and single (+)-enantiomers, 1 μM or 2 μM for 3 h, luciferase after 48 h
# Huh7.5.1 cells [5] = assay: Cytotoxicity, CellTiter-Glo Cell Viability Luminescent Assay; type: cell-based, human
# Description: (§4) To determine the […] of each compound, Huh7.5.1 cells were treated with compounds or DMSO at indicated doses for 3 h in 96-well plates. After removal of compounds, cells were further incubated for 72 h prior to the viability assay. The numbers of viable cells in culture were determined using the CellTiter-Glo Cell Viability Luminescent Assay kit according to the manufacturer's instruction (Promega). Percentages of toxicity were calculated using the formulas: 100-percentage of vial cells relative to that from the dimethyl sulfoxide (DMSO) treated group (100%) (n=3) (FIG. 20-FIG. 57).
# JFH-1 HCVcc-Luc = assay: microbe, parasite or virus in culture; type: cell-based, Hepatitis C virus; conditions: for EC50: Hepatitis C virus, Huh-7.5.1, read-out: EC50, inhibition of HCV infection; for inhibition of HCV infection (in words): Huh7.5.1 cells, comparisons are to aglaroxin C (6)
# HCVcc-Luc = assay: HCVcc time-of-addition assay; type: cell-based, Hepatitis C virus; conditions: Huh7.5.1 cells, 0.5 μM for 3 h, luciferase after 48 h
# VSVpp = type: cell-based, vesicular stomatitis virus
# [6] = system: Dengue virus (serotype 2, Thailand 16681 strain); type: cell-based; conditions: Huh7.5.1 cells, MOI 0.1, 2 μM for 3 h, viral RNA 48 h post-infection normalized against GAPDH
# translation = conditions: previous studies; cited from earlier work
# [7] = system: JEV viral envelope protein-mediated entry; type: cell-based, Japanese encephalitis virus; conditions: Huh7.5 cells, FIG. 73C
# [8] = system: Zika viral envelope protein-mediated entry; type: cell-based, Zika virus; conditions: Huh7.5 cells, FIG. 73C
# [9] = system: Denv viral envelope protein-mediated entry; type: cell-based, Dengue virus; conditions: Huh7.5 cells, FIG. 73C
# [10] = system: WNV viral envelope protein-mediated entry; type: cell-based, West Nile virus; conditions: Huh7.5 cells, FIG. 73C
# [11] = system: OHFV viral envelope protein-mediated entry; type: cell-based, Omsk Hemorrhagic Fever Virus (OHFV)
# [12] = system: hepatitis C viral (HCV) entry into host cells; conditions: separate earlier studies; cited from earlier work
# [13] = Cytotoxicity, CellTiter-Glo Cell Viability Luminescent Assay; type: cell-based, human; conditions: human; Huh7.5.1 cells, 3 h treatment, viability after 72 h; concentration giving 50% cell death
# Description: as §4
# [14] = system: Dengue virus (serotype 2, Thailand 16681 strain); conditions: comparison named in the text, no data shown; cited from earlier work
smiles,measurement,setting,value
"COc1ccc([C@@]23Oc4cc(OC)cc(OC)c4[C@]2(O)c2nc(-c4ccc(C)cc4)[nH]c(=O)c2[C@H]3c2ccccc2)cc1 (racemic) [12l, (5R,5aR,10bS)-10b-Hydroxy-8,10-dimethoxy-5a-(4-methoxyphenyl)-5-phenyl-2-(p-tolyl)-3,5,5a,10b-tetrahydro-4H-benzofuro[2′,3′:4,5]cyclopenta[1,2-d]pyrimidin-4-one]",inhibition of HCVpp infection,HCVpp,specifically inhibited
same,inhibition of Ebolapp infection,Ebolapp,not
same,HCV RNA replication,[1],neither inhibit HCV RNA replication
same,translation inhibition of firefly luciferase (cap-dependent),[2],minimal
same,toxicity curve in MTS assay compared with CellTiter-Glo assay,Huh7.5.1 cells [3],nearly identical toxicity curves
same,HCV mRNA (IRES-dependent) translation,[4],not inhibited
same,inhibition of CHIKVpp infection,CHIKVpp,specifically inhibited
same,"AUC0.2-200, area under the cytotoxicity curve (in words)",Huh7.5.1 cells [5],relatively lower cytotoxicities
same,EC50,JFH-1 HCVcc-Luc,~500 nM
same,inhibition of HCV infection (in words),JFH-1 HCVcc-Luc,three-fold greater inhibition
same,anti-HCV activity when added 3 h after infection was initiated,HCVcc-Luc,partially lost their activity
same,anti-HCV activity when added together with the virus,HCVcc-Luc,maximal anti-HCV activity
same,inhibition of VSVpp infection,VSVpp,not
"COc1ccc([C@@]23Oc4cc(OC)cc(OC)c4[C@]2(O)c2nc(-c4cccc(OC)c4)[nH]c(=O)c2[C@H]3c2ccccc2)cc1 (racemic) [12s, (5R,5aR,10bS)-10b-Hydroxy-8,10-dimethoxy-2-(3-methoxyphenyl)-5a-(4-methoxyphenyl)-5-phenyl-3,5,5a,10b-tetrahydro-4H-benzofuro[2′,3′:4,5]cyclopenta[1,2-d]pyrimidin-4-one]",inhibition of HCVpp infection,HCVpp,specifically inhibited
same,inhibition of Ebolapp infection,Ebolapp,not
same,HCV RNA replication,[1],neither inhibit HCV RNA replication
same,translation inhibition of firefly luciferase (cap-dependent),[2],minimal
same,HCV mRNA (IRES-dependent) translation,[4],not inhibited
same,inhibition of CHIKVpp infection,CHIKVpp,specifically inhibited
same,"AUC0.2-200, area under the cytotoxicity curve (in words)",Huh7.5.1 cells [5],relatively lower cytotoxicities
same,EC50,JFH-1 HCVcc-Luc,~500 nM
same,inhibition of HCV infection (in words),JFH-1 HCVcc-Luc,three-fold greater inhibition
same,anti-HCV activity when added 3 h after infection was initiated,HCVcc-Luc,partially lost their activity
same,anti-HCV activity when added together with the virus,HCVcc-Luc,maximal anti-HCV activity
same,anti-HCV activity when added together with the virus,HCVcc-Luc; listed as (±)-12s,inhibited HCV infection
same,inhibition of VSVpp infection,VSVpp,not
COc1ccc([C@@]23Oc4cc(OC)cc(OC)c4[C@]2(O)c2nc(-c4ccc(C)cc4)[nH]c(=O)c2[C@H]3c2ccccc2)cc1 [(+)-12l],HCV protein synthesis (translation),[1],did not inhibit
same,HCV RNA replication,[1],did not inhibit
same,maximum cytotoxicity plateau compared to racemic counterparts,Huh7.5.1 cells [5]; Huh7.5.1 cells,increased substantially
same,inhibition of HCV infection (in words),JFH-1 HCVcc-Luc,displayed HCV inhibition
same,anti-HCV activity when added together with the virus,HCVcc-Luc,inhibited HCV infection
same,inhibition of Dengue virus infection,[6],inhibited Dengue virus infection
COc1ccc([C@@]23Oc4cc(OC)cc(OC)c4[C@]2(O)c2nc(-c4cccc(OC)c4)[nH]c(=O)c2[C@H]3c2ccccc2)cc1 [(+)-12s],HCV protein synthesis (translation),[1],did not inhibit
same,HCV RNA replication,[1],did not inhibit
same,maximum cytotoxicity plateau compared to racemic counterparts,Huh7.5.1 cells [5]; Huh7.5.1 cells,increased substantially
same,inhibition of HCV infection (in words),JFH-1 HCVcc-Luc,displayed HCV inhibition
same,inhibition of Dengue virus infection,[6],inhibited Dengue virus infection
"COc1ccc([C@@]23Oc4cc(OC)cc(OC)c4[C@]2(O)C2=C(C(=O)N4CCC[C@H]4N2)[C@H]3c2ccccc2)cc1 [compound 5, aglaiastatin]",translation inhibition (in words),translation,promising translation inhibitor
same,"% infection, JEV envelope",[7],under 1%
same,"% infection, Zika envelope",[8],under 1%
same,"% infection, Denv envelope",[9],under 1%
same,"% infection, WNV envelope",[10],under 1%
same,"% infection, OHFV envelope",[11],under 1%
"COc1ccc([C@@]23Oc4cc(OC)cc(OC)c4[C@]2(O)c2nc4n(c(=O)c2[C@H]3c2ccccc2)CCC4)cc1 [compound 6, Aglaroxin C, reference compound]",translation inhibition (in words),translation,only moderate translation inhibition
same,HCV RNA replication,[1],neither inhibit HCV RNA replication
same,translation inhibition of firefly luciferase (cap-dependent),[2],minimal
same,concentration inhibiting HCV entry into host cells,[12],low μM concentration
same,HCV mRNA (IRES-dependent) translation,[4],not inhibited
same,cytotoxicity (in words),"Huh7.5.1 cells [5]; Huh7.5.1 cells, comparisons are to aglaroxin C (6)",plateauing of cytotoxicity
same,CC50,[13],12000 nM
same,EC50,JFH-1 HCVcc-Luc,1300 nM
same,anti-HCV activity when added 3 h after infection was initiated,HCVcc-Luc,partially lost their activity
same,anti-HCV activity when added together with the virus,HCVcc-Luc,maximal anti-HCV activity
COc1ccc([C@@]23Oc4cc(OC)cc(OC)c4[C@]2(O)[C@H](O)[C@H](C(=O)N(C)C)[C@H]3c2ccccc2)cc1 [rocaglamide],inhibition of Dengue virus infection,[14],inhibited Dengue virus infection
